Measurements as given in US9879036B2, “Mitochondrial aldehyde dehydrogenase-2 binding compounds and methods of use thereof” (Aviv Therapeutics, Inc., priority 2014, dated 2018).
Changes are numbered by the printed parent chain.

Tests used:
Format in all cases: biochemical
ALDH2 = molecular target: T1, ALDH2 (Homo sapiens, UniProt P05091); assay: ALDH2 activity with 20 μM of the compound (Table 3); settings: 20 μM compound
T1 construct: His-tag (N); made in house; host or cells: E. coli BL21
T1 sequence (P05091 18-517): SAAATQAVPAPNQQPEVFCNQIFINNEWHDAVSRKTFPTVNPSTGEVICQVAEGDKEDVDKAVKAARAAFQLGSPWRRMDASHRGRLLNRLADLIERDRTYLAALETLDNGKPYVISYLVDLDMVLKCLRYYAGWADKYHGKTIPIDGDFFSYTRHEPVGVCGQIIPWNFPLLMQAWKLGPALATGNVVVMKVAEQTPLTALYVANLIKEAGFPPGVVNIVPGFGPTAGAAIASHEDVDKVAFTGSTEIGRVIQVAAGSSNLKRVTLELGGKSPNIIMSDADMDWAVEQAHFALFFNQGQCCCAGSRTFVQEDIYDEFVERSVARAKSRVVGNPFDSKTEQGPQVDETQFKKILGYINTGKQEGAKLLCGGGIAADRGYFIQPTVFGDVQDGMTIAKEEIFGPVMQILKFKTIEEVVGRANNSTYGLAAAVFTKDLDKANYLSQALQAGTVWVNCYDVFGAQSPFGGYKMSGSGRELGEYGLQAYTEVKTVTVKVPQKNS
Procedure, shortened: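 Compound was tested at 20 μM. ALDH2 oxidation of acetaldehyde with NAD+ cofactor was followed spectrophotometrically as NADH accumulation at 340 nm. Activity is expressed relative to the enzyme's baseline activity, taken as 100%.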

ALDH2*1/*1 = molecular target: T2, ALDH2*1/*1 (Homo sapiens, UniProt P05091); assay: ALDH2 enzymatic activity, NADH accumulation at 340 nm, acetaldehyde substrate, wild type; settings: relative to baseline enzymatic activity (100%)
T2 construct: His-tag (N); made in house; host or cells: E. coli BL21 (pTrcHis vector)
T2 sequence (P05091 18-517): T1 sequence (P05091 18-517)
Description: (§1) ALDH2 catalyzes the oxidative reaction of substrate acetaldehyde to acetic acid using NAD^+ as a cofactor. Enzymatic activity, or catalytic rate, of aldehyde dehydrogenase (ALDH2) are measured spectrophotometrically at UV wavelength λ340 nm by the accumulation of reduced product NADH derived from NAD^+. Absorbance at λ340 nm is quantitatively proportional to the amount of NADH being produced over time (6.22 O.D. unit=1 mmol of NADH, measured in a 1-cm width standard cuvette). This method is well-established in the literature [e.g. Rex et al., Alcohol Clin. Exp. Res. 9, 147 (1985)].
as §1, with “can be” for “are”
(§2) Cloning, expression and purification of human ALDH2 wild type and ALDH2*2 recombinant mutant enzymes: Full-length wild type human ALDH2 cDNA was purchased from ATCC (No. MGC-1806. GenBank ID: BC002967). The 18-amino acid mitochondria transport signal sequence was removed by PCR and cloned into the NheI/HindIII sites of a His-tag vector, pTrcHis, using standard molecular cloning techniques. The human ALDH2* cDNA construct containing the Asian E487K mutation was obtained by site-directed mutagenesis to create the E487K substitution of the wild type ALDH2. Both human clones were designed to express a recombinant protein with the His-tag at the N-terminus of the protein. For the co-expression experiments of human ALDH2 wild type and ALDH2*2 heterotetramers, a wild type ALDH2 gene and a ALDH2 E487K gene were inserted separately into the two multiple cloning sites of pETDuet-1 vector. (Novagen, CA, USA). All the vectors were transformed into BL21 E. coli host cells and subjected to 0.5 mM IPTG induction for protein expression at 30° C. Purifications of the recombinant proteins by affinity nickel columns (HisTrap, GE Healthy Science, USA) were carried out using standard protocols according to manufacturer's instructions (Novagen, USA).
(§3) ALDH2 catalyzes the oxidative reaction of substrate acetaldehyde to acetic acid using NAD^+ as a cofactor. Enzymatic activity, or catalytic rate, of aldehyde dehydrogenase (ALDH2) can be measured spectrophotometrically at UV wavelength λ340 nm by the accumulation of reduced product NADH derived from NAD^+. Because compounds of formula (I) are considered to be agonists or “activators” of ALDH2 the enzymatic activity measured will exceed 100% of the baseline enzymatic activity of the enzyme in its normal activation state. As the concentration of the compounds of formula (I) decreases from 20 micromolar to 0.16 micromolar in the presence of ALDH, a decrease in the activation of enzymatic activity is observed for the wild-type ALDH2*1/*1 and the heterozygous form ALDH2*1/*2.

ALDH2*1/*2 = molecular target: T3, ALDH2*1/*2 (Homo sapiens, UniProt P05091, E504K); assay: ALDH2 enzymatic activity, NADH accumulation at 340 nm, acetaldehyde substrate, heterozygous form; settings: relative to baseline enzymatic activity (100%)
T3 construct: His-tag; made in house; host or cells: E. coli BL21 (pETDuet-1 co-expression)
T3 sequence (P05091 18-517): T1 sequence (P05091 18-517)
T3 sequence (P05091 18-517 E504K): T1 sequence (P05091 18-517) with E487K
Description: as §1
as §1, with “can be” for “are”
as §2, §3

activity at 20 µM (ALDH2): > 250%
activity at 2.5 µM (ALDH2*1/*1; 2.5 μM compound): 208%
activity at 5 µM (ALDH2*1/*1; 5 μM compound): 238%
activity at 10 µM (ALDH2*1/*1; 10 μM compound): 293%
activity at 20 µM (ALDH2*1/*1; 20 μM compound): 299%
activity at 2.5 µM (ALDH2*1/*2; 2.5 μM compound): 202%
activity at 5 µM (ALDH2*1/*2; 5 μM compound): 260%
activity at 10 µM (ALDH2*1/*2; 10 μM compound): 281%
activity at 20 µM (ALDH2*1/*2; 20 μM compound): 336%
SMILES: COc1ccc(CNC(=O)c2cc(-c3ncccc3CO)ccc2OCC2CC2)cc1F [AC6]
